In publication PMC7181660, “A novel specific PERK activator reduces toxicity and extends survival in Huntington's disease models” (Scientific Reports, 2020):
Read-outs that look alike come from different tables or passages of the source.

Tests used:
Experiment in all cases: biochemical
Assay type in all cases: biochemical
panel of 391 kinases [1] = target: panel of 391 kinases (Homo sapiens, UniProt P45984); settings: JNK2, MK-28 1 µM, ATP 1 µM
panel of 391 kinases [2] = target: panel of 391 kinases (Homo sapiens, UniProt P49840); settings: GSK3a, MK-28 1 µM, ATP 1 µM
panel of 391 kinases [3] = target: panel of 391 kinases (Homo sapiens, UniProt Q13163); settings: MEK5, MK-28 1 µM, ATP 1 µM
panel of 391 kinases [4] = target: panel of 391 kinases (Homo sapiens, UniProt P06241); settings: FYN, MK-28 1 µM, ATP 1 µM
panel of 391 kinases [5] = target: panel of 391 kinases (Homo sapiens, UniProt P17252); settings: PKCa, MK-28 1 µM, ATP 1 µM
panel of 391 kinases [6] = target: panel of 391 kinases (Homo sapiens, UniProt Q16832); settings: DDR2, MK-28 1 µM, ATP 1 µM
panel of 391 kinases [7] = target: panel of 391 kinases (Homo sapiens, UniProt Q05655); settings: PKCd, MK-28 1 µM, ATP 1 µM
panel of 391 kinases [8] = target: panel of 391 kinases (Homo sapiens, UniProt P14616); settings: IRR/INSRR, MK-28 1 µM, ATP 1 µM
panel of 391 kinases [9] = target: panel of 391 kinases (Homo sapiens, UniProt Q96GD4); settings: Aurora B, MK-28 1 µM, ATP 1 µM
panel of 391 kinases [10] = target: panel of 391 kinases (Homo sapiens, UniProt P80192); settings: MLK1/MAP3K9, MK-28 1 µM, ATP 1 µM
panel of 391 kinases [11] = target: panel of 391 kinases (Homo sapiens, UniProt Q9HCP0); settings: CK1g1, MK-28 1 µM, ATP 1 µM
panel of 391 kinases [12] = target: panel of 391 kinases (Homo sapiens, UniProt P24941); settings: MK-28 1 µM, ATP 1 µM; for remaining activity at 1 µM: read-out: % Enzyme Activity (relative to DMSO controls)
panel of 391 kinases [13] = target: panel of 391 kinases (Homo sapiens, UniProt Q15759); settings: P38b/MAPK11, MK-28 1 µM, ATP 1 µM
panel of 391 kinases [14] = target: panel of 391 kinases (Homo sapiens, UniProt Q08345); settings: DDR1, MK-28 1 µM, ATP 1 µM
panel of 391 kinases [15] = target: panel of 391 kinases (Homo sapiens, UniProt Q15139); settings: PKCmu/PRKD1, MK-28 1 µM, ATP 1 µM
panel of 391 kinases [16] = target: panel of 391 kinases (Homo sapiens, UniProt Q9UPE1); settings: MSSK1/STK23, MK-28 1 µM, ATP 1 µM
panel of 391 kinases [17] = target: panel of 391 kinases (Homo sapiens, UniProt Q9UKI8); settings: TLK1, MK-28 1 µM, ATP 1 µM
panel of 391 kinases [18] = target: panel of 391 kinases (Homo sapiens, UniProt Q9P289); settings: MST4, MK-28 1 µM, ATP 1 µM
panel of 391 kinases [19] = target: panel of 391 kinases (Homo sapiens, UniProt Q9UK32); settings: RSK4, MK-28 1 µM, ATP 1 µM
panel of 391 kinases [20] = target: T1, panel of 391 kinases (Homo sapiens, UniProt Q9NR20); settings: DYRK4, MK-28 1 µM, ATP 1 µM
T1 sequence (Q9NR20 1-520): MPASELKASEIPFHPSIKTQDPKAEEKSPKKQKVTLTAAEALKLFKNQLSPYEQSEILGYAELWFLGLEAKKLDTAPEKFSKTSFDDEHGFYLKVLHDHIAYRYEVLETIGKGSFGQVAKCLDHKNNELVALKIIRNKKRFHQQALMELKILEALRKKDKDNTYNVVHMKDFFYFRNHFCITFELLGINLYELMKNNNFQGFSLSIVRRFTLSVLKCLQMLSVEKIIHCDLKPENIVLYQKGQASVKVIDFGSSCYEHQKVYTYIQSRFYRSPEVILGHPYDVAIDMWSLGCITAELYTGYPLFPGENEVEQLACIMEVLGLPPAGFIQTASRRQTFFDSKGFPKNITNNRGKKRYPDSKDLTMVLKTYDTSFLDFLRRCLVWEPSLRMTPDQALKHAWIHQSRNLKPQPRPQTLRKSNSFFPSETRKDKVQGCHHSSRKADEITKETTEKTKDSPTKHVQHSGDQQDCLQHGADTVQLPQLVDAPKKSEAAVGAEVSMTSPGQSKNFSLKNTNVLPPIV

panel of 391 kinases [21] = target: panel of 391 kinases (Homo sapiens, UniProt P20794); settings: MAK, MK-28 1 µM, ATP 1 µM
[22] = read-out: % Enzyme Activity (relative to DMSO controls)

Q: For `CN(/N=C\c1ccc(O)c(O)c1)c1nc(-c2ccccc2)cc(-c2ccccc2)n1` [MK-28], which “% Enzyme Activity (relative to DMSO controls)” value (panel of 391 kinases [1]) is on record?
A: 90.48%

Q: What about the remaining activity at 1 µM (panel of 391 kinases [1]; [22]) of the same molecule?
A: 90.8%

Q: What about the “% Enzyme Activity (relative to DMSO controls)” value (panel of 391 kinases [2]) of the same molecule?
A: 82.88%

Q: And the remaining activity at 1 µM (panel of 391 kinases [2]; [22])?
A: 83%

Q: What about the “% Enzyme Activity (relative to DMSO controls)” value (panel of 391 kinases [3]) of the same molecule?
A: 100.81%

Q: And the remaining activity at 1 µM (panel of 391 kinases [3]; [22])?
A: 105%

Q: What about the “% Enzyme Activity (relative to DMSO controls)” value (panel of 391 kinases [4]) of the same molecule?
A: 103.36%

Q: What about the remaining activity at 1 µM (panel of 391 kinases [4]; [22]) of the same molecule?
A: 103%

Q: What about the “% Enzyme Activity (relative to DMSO controls)” value (panel of 391 kinases [5]) of the same molecule?
A: 89.76%

Q: And the remaining activity at 1 µM (panel of 391 kinases [5]; [22])?
A: 92.7%

Q: What about the “% Enzyme Activity (relative to DMSO controls)” value (panel of 391 kinases [6]) of the same molecule?
A: 95.21%

Q: What about the remaining activity at 1 µM (panel of 391 kinases [6]; [22]) of the same molecule?
A: 97.4%

Q: What about the “% Enzyme Activity (relative to DMSO controls)” value (panel of 391 kinases [7]) of the same molecule?
A: 97.74%

Q: And the remaining activity at 1 µM (panel of 391 kinases [7]; [22])?
A: 98.5%

Q: And the “% Enzyme Activity (relative to DMSO controls)” value (panel of 391 kinases [8])?
A: 82.69%

Q: What about the remaining activity at 1 µM (panel of 391 kinases [8]; [22]) of the same molecule?
A: 85.9%

Q: What about the “% Enzyme Activity (relative to DMSO controls)” value (panel of 391 kinases [9]) of the same molecule?
A: 106.50%

Q: And the remaining activity at 1 µM (panel of 391 kinases [9]; [22])?
A: 107%

Q: What about the “% Enzyme Activity (relative to DMSO controls)” value (panel of 391 kinases [10]) of the same molecule?
A: 91.08%

Q: What about the remaining activity at 1 µM (panel of 391 kinases [10]; [22]) of the same molecule?
A: 91.3%

Q: What about the “% Enzyme Activity (relative to DMSO controls)” value (panel of 391 kinases [11]) of the same molecule?
A: 78.20%

Q: And the remaining activity at 1 µM (panel of 391 kinases [11]; [22])?
A: 80%

Q: What about the “% Enzyme Activity (relative to DMSO controls)” value (panel of 391 kinases [12]; CDK2/Cyclin A1) of the same molecule?
A: 112.90%

Q: And the remaining activity at 1 µM (panel of 391 kinases [12]; CDK2/Cyclin A1)?
A: 118%

Q: And the “% Enzyme Activity (relative to DMSO controls)” value (panel of 391 kinases [12]; CDK2/cyclin A)?
A: 102.50%

Q: What about the remaining activity at 1 µM (panel of 391 kinases [12]; CDK2/cyclin A) of the same molecule?
A: 104%

Q: And the “% Enzyme Activity (relative to DMSO controls)” value (panel of 391 kinases [12]; CDK2/cyclin E2)?
A: 99.65%

Q: What about the remaining activity at 1 µM (panel of 391 kinases [12]; CDK2/cyclin E2) of the same molecule?
A: 100%

Q: And the “% Enzyme Activity (relative to DMSO controls)” value (panel of 391 kinases [12]; CDK2/cyclin E)?
A: 95.41%

Q: And the remaining activity at 1 µM (panel of 391 kinases [12]; CDK2/cyclin E)?
A: 97%

Q: And the “% Enzyme Activity (relative to DMSO controls)” value (panel of 391 kinases [12]; CDK2/cyclin O)?
A: 124.92%

Q: What about the remaining activity at 1 µM (panel of 391 kinases [12]; CDK2/cyclin O) of the same molecule?
A: 126%

Q: What about the “% Enzyme Activity (relative to DMSO controls)” value (panel of 391 kinases [13]) of the same molecule?
A: 107.60%

Q: And the remaining activity at 1 µM (panel of 391 kinases [13]; [22])?
A: 109%

Q: What about the “% Enzyme Activity (relative to DMSO controls)” value (panel of 391 kinases [14]) of the same molecule?
A: 100.73%

Q: What about the remaining activity at 1 µM (panel of 391 kinases [14]; [22]) of the same molecule?
A: 103%

Q: What about the “% Enzyme Activity (relative to DMSO controls)” value (panel of 391 kinases [15]) of the same molecule?
A: 94.26%

Q: And the remaining activity at 1 µM (panel of 391 kinases [15]; [22])?
A: 95.3%

Q: What about the “% Enzyme Activity (relative to DMSO controls)” value (panel of 391 kinases [16]) of the same molecule?
A: 107.79%

Q: And the remaining activity at 1 µM (panel of 391 kinases [16]; [22])?
A: 108%

Q: What about the “% Enzyme Activity (relative to DMSO controls)” value (panel of 391 kinases [17]) of the same molecule?
A: 93.00%

Q: What about the remaining activity at 1 µM (panel of 391 kinases [17]; [22]) of the same molecule?
A: 96.5%

Q: What about the “% Enzyme Activity (relative to DMSO controls)” value (panel of 391 kinases [18]) of the same molecule?
A: 101.40%

Q: What about the remaining activity at 1 µM (panel of 391 kinases [18]; [22]) of the same molecule?
A: 102%

Q: And the “% Enzyme Activity (relative to DMSO controls)” value (panel of 391 kinases [19])?
A: 101.39%

Q: What about the remaining activity at 1 µM (panel of 391 kinases [19]; [22]) of the same molecule?
A: 102%

Q: And the “% Enzyme Activity (relative to DMSO controls)” value (panel of 391 kinases [20])?
A: 99.42%

Q: What about the remaining activity at 1 µM (panel of 391 kinases [20]; [22]) of the same molecule?
A: 101%

Q: And the “% Enzyme Activity (relative to DMSO controls)” value (panel of 391 kinases [21])?
A: 94.70%

Q: And the remaining activity at 1 µM (panel of 391 kinases [21]; [22])?
A: 97.8%
